Measurements taken from publication PMC9743092, “Membrane-Active Cyclic Amphiphilic Peptides: Broad-Spectrum Antibacterial Activity Alone and in Combination with Antibiotics” (Journal of Medicinal Chemistry, 2022).
Converted amounts (≈) assume the structure as drawn. Like-named read-outs stand apart in the source and are kept apart here. Peptide text beside a SMILES is read from it.

Key:
[1] = test system: P. aeruginosa (ATCC 27883); settings: 24 h, ≥99.9% kill
[2] = test system: human red blood cells (hRBCs); settings: red cells of human, 2 h
Experimental: The hemolytic activity of all the cyclic peptides was determined using human red blood cells (hRBC) purchased from BioIVT, USA. […] Peptide-induced hemolysis was tested in triplicate by mixing 75 μL of the peptide solution in PBS (two-fold serial dilution) with 75 μL of a 4% (v/v) hRBC suspension in phosphate-buffered saline. The plates were incubated for 2 h at 37 °C without agitation and centrifuged at 1000g for 10 min. Aliquots (100 μL) of the supernatant were transferred to 96-well plates, where hemoglobin release was measured spectrophotometrically at 567 nm. Percent hemolysis was calculated by the following formula: [drawing 1] where A represents the absorbance of the peptide sample at 567 nm and A0 and At represent zero percent and 100% hemolysis determined in phosphate-buffered saline and 1% Triton X-100, respectively.

MRSA (ATCC BAA-1556) = test system: MRSA (ATCC BAA-1556); design: MIC MRSA: unit not given beside the values; settings: for MIC MRSA: supplementary csv, unit not given
[3] = test system: K. pneumoniae (ATCC BAA-1705); settings: for MIC K. pneumoniae: supplementary csv, unit not given
[4] = test system: P. aeruginosa (ATCC 27883); design: MIC P. aeruginosa: unit not given beside the values; settings: supplementary csv, unit not given
[5] = test system: K. pneumoniae (ATCC BAA-1705); settings: 24 h, ≥99.9% kill
E. coli (ATCC 25922) [6] = settings: 24 h, ≥99.9% kill
E. coli (ATCC 25922) [7] = test system: E. coli (ATCC 25922); design: MIC E. coli: unit not given beside the values; settings: supplementary csv, unit not given

Row | Structure (SMILES) | MBC P. aeruginosa (ATCC 27883) [1] [µg/mL] | HC50 [2] [µg/mL] | MIC MRSA (MRSA (ATCC BAA-1556)) | MIC K. pneumoniae [3] | MIC P. aeruginosa [4] | MBC K. pneumoniae (ATCC BAA-1705) [5] [µg/mL] | MBC E. coli (ATCC 25922) (E. coli (ATCC 25922) [6]) [µg/mL] | MIC E. coli (E. coli (ATCC 25922) [7]) | MIC MRSA (ATCC BAA-1556) (MRSA (ATCC BAA-1556); CaCl2 (2 mM)) [µg/mL] | MIC MRSA (ATCC BAA-1556) (MRSA (ATCC BAA-1556); FBS (25%)) [µg/mL] | MIC MRSA (ATCC BAA-1556) (MRSA (ATCC BAA-1556); FeCl3 (8 µM)) [µg/mL] | MIC MRSA (ATCC BAA-1556) (MRSA (ATCC BAA-1556); KCl ([…])) [µg/mL] | MIC MRSA (ATCC BAA-1556) (MRSA (ATCC BAA-1556); MH broth media, absence of salts and serum) [µg/mL] | MIC MRSA (ATCC BAA-1556) (MRSA (ATCC BAA-1556); MgCl2 (1 mM)) [µg/mL] | MIC MRSA (ATCC BAA-1556) (MRSA (ATCC BAA-1556); NH4Cl (6 mM)) [µg/mL] | MIC MRSA (ATCC BAA-1556) (MRSA (ATCC BAA-1556); NaCl (150 mM)) [µg/mL] | MIC K. pneumoniae (ATCC BAA-1705) ([3]; MgCl2 (1 mM)) [µg/mL] | MIC K. pneumoniae (ATCC BAA-1705) ([3]; NH4Cl (6 mM)) [µg/mL]
1 | N=C(N)NCCC[C@@H]1NC(=O)[C@H](CCCNC(=N)N)NC(=O)[C@H](CCCNC(=N)N)NC(=O)[C@H](Cc2c[nH]c3ccccc23)NC(=O)[C@H](Cc2c[nH]c3ccccc23)NC(=O)[C@H](Cc2c[nH]c3ccccc23)NC(=O)[C@H](Cc2c[nH]c3ccccc23)NC(=O)[C@H](Cc2c[nH]c3ccccc23)NC(=O)[C@H](CCCNC(=N)N)NC(=O)[C@H](CCCNC(=N)N)NC1=O [5b, [R5W5]] | 32 (≈ 18.7 µM) | 230 | 4 | 32 | 32 | 32 (≈ 18.7 µM) | 64 (≈ 37.4 µM) | 16 |  |  |  |  |  |  |  |  |  | 
2 | N=C(N)NCCC[C@@H]1NC(=O)[C@H](CCCNC(=N)N)NC(=O)[C@H](CCCNC(=N)N)NC(=O)[C@H](CCCNC(=N)N)NC(=O)[C@H](Cc2c[nH]c3ccccc23)NC(=O)[C@H](Cc2c[nH]c3ccccc23)NC(=O)[C@H](Cc2c[nH]c3ccccc23)NC(=O)[C@H](Cc2c[nH]c3ccccc23)NC(=O)[C@H](CCCNC(=N)N)NC(=O)[C@H](CCCNC(=N)N)NC1=O [6a, [R6W4]] (cyclo(RRRRRRWWWW)) | 16 (≈ 9.51 µM) | 265 | 8 | 64 | 16 | 128 (≈ 76.1 µM) | 32 (≈ 19 µM) | 32 | 8 (≈ 4.76 µM) | 8 (≈ 4.76 µM) | 8 (≈ 4.76 µM) | 8 (≈ 4.76 µM) | 8 | 4 (≈ 2.38 µM) | 4 (≈ 2.38 µM) | 8 (≈ 4.76 µM) | 32 (≈ 19 µM) | 32 (≈ 19 µM)
3 | N=C(N)NCCC[C@@H]1NC(=O)[C@H](CCCNC(=N)N)NC(=O)[C@H](CCCNC(=N)N)NC(=O)[C@H](CCCNC(=N)N)NC(=O)[C@H](Cc2c[nH]c3ccccc23)NC(=O)[C@H](Cc2c[nH]c3ccccc23)NC(=O)[C@H](Cc2c[nH]c3ccccc23)NC(=O)[C@H](Cc2c[nH]c3ccccc23)NC(=O)[C@H](Cc2c[nH]c3ccccc23)NC(=O)[C@H](CCCNC(=N)N)NC(=O)[C@H](CCCNC(=N)N)NC1=O [6b, [R6W5]] (cyclo(RRRRRRWWWWW)) | 32 (≈ 17.1 µM) | 255 | 8 | 64 | 16 | 64 (≈ 34.3 µM) | 128 (≈ 68.5 µM) | 32 |  |  |  |  |  |  |  |  |  | 
4 | N=C(N)NCCC[C@@H]1NC(=O)[C@H](CCCNC(=N)N)NC(=O)[C@H](CCCNC(=N)N)NC(=O)[C@H](CCCNC(=N)N)NC(=O)[C@H](Cc2c[nH]c3ccccc23)NC(=O)[C@H](Cc2c[nH]c3ccccc23)NC(=O)[C@H](Cc2c[nH]c3ccccc23)NC(=O)[C@H](Cc2c[nH]c3ccccc23)NC(=O)[C@H](Cc2c[nH]c3ccccc23)NC(=O)[C@H](Cc2c[nH]c3ccccc23)NC(=O)[C@H](CCCNC(=N)N)NC(=O)[C@H](CCCNC(=N)N)NC1=O [6c, [R6W6]] (cyclo(RRRRRRWWWWWW)) |  | 170 | 16 | 64 | 128 |  |  | 64 |  |  |  |  |  |  |  |  |  | 
5 | N=C(N)NCCC[C@@H]1NC(=O)[C@H](CCCNC(=N)N)NC(=O)[C@H](CCCNC(=N)N)NC(=O)[C@H](CCCNC(=N)N)NC(=O)[C@H](Cc2c[nH]c3ccccc23)NC(=O)[C@H](Cc2c[nH]c3ccccc23)NC(=O)[C@H](Cc2c[nH]c3ccccc23)NC(=O)[C@H](Cc2c[nH]c3ccccc23)NC(=O)[C@H](Cc2c[nH]c3ccccc23)NC(=O)[C@H](Cc2c[nH]c3ccccc23)NC(=O)[C@H](Cc2c[nH]c3ccccc23)NC(=O)[C@H](CCCNC(=N)N)NC(=O)[C@H](CCCNC(=N)N)NC1=O [6d, [R6W7]] (cyclo(RRRRRRWWWWWWW)) |  | 85 | 64 | 256 | >256 |  |  | 128 |  |  |  |  |  |  |  |  |  | 
6 | N=C(N)NCCC[C@@H]1NC(=O)[C@H](CCCNC(=N)N)NC(=O)[C@H](CCCNC(=N)N)NC(=O)[C@H](CCCNC(=N)N)NC(=O)[C@H](Cc2c[nH]c3ccccc23)NC(=O)[C@H](Cc2c[nH]c3ccccc23)NC(=O)[C@H](Cc2c[nH]c3ccccc23)NC(=O)[C@H](Cc2c[nH]c3ccccc23)NC(=O)[C@H](CCCNC(=N)N)NC(=O)[C@H](CCCNC(=N)N)NC(=O)[C@H](CCCNC(=N)N)NC1=O [7a, [R7W4]] (cyclo(RRRRRRRWWWW)) |  | 190 | 16 | 64 | 32 |  |  | 32 |  |  |  |  |  |  |  |  |  | 
